Values joined by “and” are separate entries in the source; they are usually repeats but may differ in a detail not shown here. Equal entries are not always repeated. Inconclusive results and toxic doses are left out. No stated cut-off is given here; in the data, active means T/C of 150% or more; inactive means T/C below 125%.
System: L1210 leukemia ip in BDF1 mice, survival T/C
Assay: NCI In Vivo Anticancer Drug Screen. Data for tumor model L1210 Leukemia (intraperitoneal) in B6D2F1 (BDF1) mice
Conditions: endpoint: mean survival time, higher = longer survival
Procedure, shortened: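 Tumor cells were implanted, animals were treated, and survival was followed. The result divides the treated measurement by the vehicle-control measurement.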

[1] = dose: 100.0 mg/kg/injection, schedule: Q01DX009 (ip), vehicle: saline with Tween-80
[2] = dose: 200.0 mg/kg/injection, schedule: Q01DX009 (ip), vehicle: saline with Tween-80
[3] = dose: 100.0 mg/kg/injection, schedule: Q01DX009 (ip), vehicle: saline
[4] = dose: 200.0 mg/kg/injection, schedule: Q01DX009 (ip), vehicle: saline
[5] = dose: 400.0 mg/kg/injection, schedule: Q01DX009 (ip), vehicle: saline
[6] = dose: 50.0 mg/kg/injection, schedule: Q01DX001 (ip), vehicle: saline
[7] = dose: 100.0 mg/kg/injection, schedule: Q01DX001 (ip), vehicle: saline
[8] = dose: 200.0 mg/kg/injection, schedule: Q01DX001 (ip), vehicle: saline
[9] = dose: 400.0 mg/kg/injection, schedule: Q01DX001 (ip), vehicle: saline

Measured: T/C

CN1CCCC1=O
inactive: dose: 50.0 mg/kg/injection, schedule: Q01DX009 (ip), vehicle: saline with Tween-80 91 % of control | [1] 88 % of control | [2] 102 % of control

CC(=O)Nc1nc(/C=N/NC(N)=S)cc(=O)[nH]1
inactive: dose: 75.0 mg/kg/injection, schedule: Q01DX001 (ip), vehicle: other 100 % of control | dose: 150.0 mg/kg/injection, schedule: Q01DX001 (ip), vehicle: other 96 % of control | dose: 300.0 mg/kg/injection, schedule: Q01DX001 (ip), vehicle: other 105 % of control

Cc1ccc(S(=O)(=O)OCC(F)(F)C(F)(F)C(F)(F)C(F)(F)C(F)(F)C(F)(F)C(F)(F)F)cc1
inactive: [3] 94 % of control | [4] 88 % of control | [5] 93 % of control

Cc1ccccc1OCC(=O)Nc1ccc(-c2ccc(NC(=O)COc3ccccc3C)cc2)cc1
inactive: dose: 100.0 mg/kg/injection, schedule: Q04DX002 (ip), vehicle: gum acacia 92 % of control | dose: 200.0 mg/kg/injection, schedule: Q04DX002 (ip), vehicle: gum acacia 95 % of control | dose: 400.0 mg/kg/injection, schedule: Q04DX002 (ip), vehicle: gum acacia 100 % of control

O=c1c([N+](=O)[O-])c[nH]c2cc(Cl)ccc12
inactive: [6] 92 % of control | [7] 101 % of control | [8] 103 % of control | [9] 97 % of control

Cc1ccc(S(=O)(=O)NC(=O)Nc2cc(Cl)c(Cl)cc2C)cc1
inactive: dose: 50.0 mg/kg/injection, schedule: Q01DX009 (ip), vehicle: saline 100 % of control and 108 % of control | [1] 94 % of control and 91 % of control | [3] 97 % of control and 88 % of control | dose: 100.0 mg/kg/injection, schedule: Q04DX002 (ip), vehicle: saline with Tween-80 100 % of control and 110 % of control | [2] 93 % of control | [4] 94 % of control and 86 % of control | dose: 200.0 mg/kg/injection, schedule: Q04DX002 (ip), vehicle: saline with Tween-80 93 % of control and 96 % of control | [5] 93 % of control | dose: 400.0 mg/kg/injection, schedule: Q04DX002 (ip), vehicle: saline with Tween-80 100 % of control and 104 % of control

CCCN(CCC)C[Si](C)(C)C
inactive: dose: 12.5 mg/kg/injection, schedule: Q01DX001 (ip), vehicle: saline 121 % of control | dose: 25.0 mg/kg/injection, schedule: Q01DX001 (ip), vehicle: saline 105 % of control | [6] 111 % of control

CC(=O)NC1CCCCCC1I (stereo not given)
inactive: dose: 10.0 mg/kg/injection, schedule: Q01DX001 (ip), vehicle: saline 105 % of control | dose: 20.0 mg/kg/injection, schedule: Q01DX001 (ip), vehicle: saline 101 % of control | dose: 40.0 mg/kg/injection, schedule: Q01DX001 (ip), vehicle: saline 98 % of control

CCCCCCCC/C=C\CCCCCCCC(=O)NCCCOCCOCCOCC
inactive: dose: 75.0 mg/kg/injection, schedule: Q01DX009 (ip), vehicle: saline 97 % of control | dose: 75.0 mg/kg/injection, schedule: Q04DX003 (ip), vehicle: saline 94 % of control | dose: 150.0 mg/kg/injection, schedule: Q01DX009 (ip), vehicle: saline 101 % of control | dose: 150.0 mg/kg/injection, schedule: Q04DX003 (ip), vehicle: saline 90 % of control | dose: 300.0 mg/kg/injection, schedule: Q01DX009 (ip), vehicle: saline 87 % of control | dose: 300.0 mg/kg/injection, schedule: Q04DX003 (ip), vehicle: saline 95 % of control

CN1CCC2(CC1)C(=O)N(Cc1ccccc1)C(=O)C2c1ccccc1 (stereo not given)
inactive: dose: 25.0 mg/kg/injection, schedule: Q04DX002 (ip), vehicle: saline 108 % of control | dose: 100.0 mg/kg/injection, schedule: Q04DX002 (ip), vehicle: Klucel (hydroxypropylcellulose) (HPC) 93 % of control | dose: 100.0 mg/kg/injection, schedule: Q04DX002 (ip), vehicle: saline 104 % of control and 118 % of control | dose: 200.0 mg/kg/injection, schedule: Q04DX002 (ip), vehicle: Klucel (hydroxypropylcellulose) (HPC) 86 % of control

N#CCCN(C(=S)Nc1ccc(Cl)c(Cl)c1)C1CCCCC1
inactive: dose: 100.0 mg/kg/injection, schedule: Q01DX009 (ip), vehicle: Klucel (hydroxypropylcellulose) (HPC) 107 % of control | dose: 200.0 mg/kg/injection, schedule: Q01DX009 (ip), vehicle: Klucel (hydroxypropylcellulose) (HPC) 113 % of control | dose: 400.0 mg/kg/injection, schedule: Q01DX009 (ip), vehicle: Klucel (hydroxypropylcellulose) (HPC) 103 % of control

Cc1nc(-c2ccccc2)cc(=O)o1
inactive: dose: 100.0 mg/kg/injection, schedule: Q04DX003 (ip), vehicle: Klucel (hydroxypropylcellulose) (HPC) 102 % of control | dose: 200.0 mg/kg/injection, schedule: Q04DX003 (ip), vehicle: Klucel (hydroxypropylcellulose) (HPC) 102 % of control | dose: 400.0 mg/kg/injection, schedule: Q04DX003 (ip), vehicle: Klucel (hydroxypropylcellulose) (HPC) 98 % of control

CC(=O)CC(=O)Nc1cccc(Br)c1
inactive: dose: 100.0 mg/kg/injection, schedule: Q04DX003 (ip), vehicle: saline with Tween-80 102 % of control | dose: 200.0 mg/kg/injection, schedule: Q04DX003 (ip), vehicle: saline with Tween-80 97 % of control | dose: 400.0 mg/kg/injection, schedule: Q04DX003 (ip), vehicle: saline with Tween-80 97 % of control

COc1cc(C)c2ccc3ccccc3c2n1
inactive: dose: 100.0 mg/kg/injection, schedule: Q01DX001 (ip), vehicle: other 93 % of control | dose: 200.0 mg/kg/injection, schedule: Q01DX001 (ip), vehicle: other 95 % of control | dose: 400.0 mg/kg/injection, schedule: Q01DX001 (ip), vehicle: other 97 % of control

CCCCC(CN)c1cccc2ccccc12 (stereo not given)
inactive: dose: 25.0 mg/kg/injection, schedule: Q04DX002 (ip), vehicle: saline with Tween-80 95 % of control | dose: 50.0 mg/kg/injection, schedule: Q04DX002 (ip), vehicle: saline with Tween-80 92 % of control

NC(=O)C1C(=O)c2cccc3c2C1(Br)C(Br)CCC3 (stereo not given)
inactive: [7] 93 % of control

O=c1ccc2cccc(O)c2[nH]1
inactive: [7] 97 % of control | [8] 94 % of control | [9] 100 % of control

O=C(NCCCCCCCCCCNC(=O)Nc1ccc(C2=NCC(O)CN2)cc1)Nc1ccc(C2=NCC(O)CN2)cc1 (stereo not given)
inactive: dose: 4.0 mg/kg/injection, schedule: Q01DX Z (ip), vehicle: water 117 % of control | dose: 8.0 mg/kg/injection, schedule: Q01DX Z (ip), vehicle: water 112 % of control | dose: 16.0 mg/kg/injection, schedule: Q01DX Z (ip), vehicle: water 106 % of control

CN(C)CCSc1ncnc2nc[nH]c12
inactive: dose: 100.0 mg/kg/injection, schedule: Q04DX003 (ip), vehicle: saline 94 % of control | dose: 200.0 mg/kg/injection, schedule: Q04DX003 (ip), vehicle: saline 99 % of control | dose: 400.0 mg/kg/injection, schedule: Q04DX003 (ip), vehicle: saline 89 % of control

— PubChem BioAssay AID248 (DTP/NCI, 2004)
